Results from patent US20140037798A1, “LIQUID NUTRITIONAL PRODUCTS COMPRISING METAL AMINO ACID CHELATES” (ABBOTT LABORATORIES, priority 2011, published 2014).

What was measured:
[1] = Vitamin B12 recovery in retort sterilized chocolate flavored nutritional emulsion (validated HPLC); conditions: copper ingredient 35 μM
Protocol: Once prepared, the emulsions are analyzed for vitamin B12 recovery using a fully validated HPLC method to determine the amount of vitamin B12 remaining (i.e., not lost to oxidative destruction) in the nutritional emulsion.

[2] = Methionine sulfoxide concentration in nutritional emulsion, marker of reactive oxygen species generation; format: physicochemical; conditions: copper ingredient 35 μM, retort sterilized
[3] = cocoa powder 0.80% (w/w), pH 6.8 HEPES, cocoa powder:iron 40:1, 99° C. thirty minutes, 0.45 μm filtrate
Protocol: The visible absorbance of liquids including a mixture of cocoa powder and an iron-containing component is measured to determine the ability of various ferric salts, including ferric amino acid chelates, to decrease reactivity between the iron and the cocoa powder.
Various samples are prepared as described herein using various iron-containing components. All mixtures contain cocoa powder at 0.80% (w/w) in pH 6.8 buffer (0.10M HEPES). The control liquid is prepared without any iron-containing component. In the remaining samples, the iron components are added so that the weight ratio of cocoa powder:iron is 40:1 (w/w).

Compound | Vitamin B12 [1] | Methionine sulfoxide, as mole % of total methionine [2] | Absorbance, Filtrate v. Blank, 535 nm [3] | Absorbance, Filtrate v. Blank, 600 nm [3] | Absorbance, Filtrate v. Blank, 700 nm [3]
O.O.O.O.O.O=S(=O)([O-])[O-].[Cu+2] [Control (CuSO4), copper sulfate pentahydrate, reference compound] | 38.5 µg/kg | 18.8% |  |  | 
NCC(=O)[O-].NCC(=O)[O-].[Cu+2] [Copper bis-glycinate chelate, copper bis-glycinate chelate] | 41.3 µg/kg | 18.1% |  |  | 
O=P([O-])([O-])[O-].[Fe+3] [Ferric orthophosphate, reference compound] |  |  | 579 mAU | 237 mAU | 65 mAU
NCC(=O)[O-].NCC(=O)[O-].[Fe+2] [Ferrous bis-glycinate] |  |  | 1200 mAU | 1040 mAU | 567 mAU
Ferric bis-glycinate |  |  | 610 mAU | 319 mAU | 101 mAU
Ferrous gluconate |  |  | 1230 mAU | 1100 mAU | 607 mAU
Ferrous sulfate [reference compound] |  |  | 1240 mAU | 1150 mAU | 688 mAU
copper gluconate | 46.4 µg/kg | 17.9% |  |  | 
copper lysine chelate | 47.0 µg/kg | 17.4% |  |  | 
